In US9394297B2, “Amides as pim inhibitors” (AMGEN INC., priority 2012, dated 2016):
Structures can show the parent of a compound that is named as a salt. Where two headings read alike, the source gives them in different places.

Tests used:
Pim-2 [1] = target: T1, Pim-2 (Homo sapiens (Human), UniProt Q9P1W9); assay: Pim enzyme assay (HTRF, 96-well), Pim-2; type: biochemical; conditions: full length recombinant Pim-2, biotinylated-BAD (S112) peptide, 10-point curve, 45 min RT, read-out: Pim-2 IC50 IP
T1 sequence (Q9P1W9 whole entry): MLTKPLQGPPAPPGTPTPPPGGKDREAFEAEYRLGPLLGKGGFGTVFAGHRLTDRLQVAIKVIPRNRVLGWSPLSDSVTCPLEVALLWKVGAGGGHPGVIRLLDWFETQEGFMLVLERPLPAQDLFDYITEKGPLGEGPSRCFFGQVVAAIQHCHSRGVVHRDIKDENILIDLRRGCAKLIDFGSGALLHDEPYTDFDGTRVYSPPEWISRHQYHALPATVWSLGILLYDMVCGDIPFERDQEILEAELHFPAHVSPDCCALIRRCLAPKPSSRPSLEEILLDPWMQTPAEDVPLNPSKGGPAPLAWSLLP
From the text: These cDNAs were used as templates in PCR reactions to produce full-length DNA clones of the PIMs. […] PCR products were digested with BclI and EcoRI for Pim-1 and BamHI and EcoRI for Pim-2 and ligated into a modified baculovirus transfer vector (pFastBac1) cleaved with BamHI and EcoRI. For bacterial expression, the same cleaved PCR products encoding Pim-1 or Pim-2 were ligated into a modified E. coli expression vector pET28(a) cleaved with BamHI and EcoRI. Amino-terminal hexahistidine tags followed by a thrombin cleavage site were previously added to the vectors using standard methods of molecular biology.
Recombinant baculoviruses expressing Pim-1 or Pim-2 were made using standard methods (Fastbac manual, Invitrogen, Carlsbad, Calif.). […] Cells were harvested by centrifugation and frozen at −80 C. For E. coli expression, cells carrying pET28-His6-Th-Pim-1 or pET28-His6-Th-Pim-2 were picked from a single colony and grown o/n in LB media. The o/n culture was used to inoculate a 2 liter flask with 500 mL media. This was grown o/n and used to inoculate 15-20 liters of Terrific Broth in a New Brunswick Scientific fermentor. The E. coli were grown at 37° C. to and OD600 >1.6. The temperature was dropped to 18° C. and o/n expression was induced with 0.5 mM IPTG. Cells were harvested by centrifugation and frozen at −80° C.
The slurry was centrifuged at 1,000×g for 5 min, the supernatant decanted, and the resin suspended in 40 mL of lysis wash buffer (lysis buffer at 0.75 M NaCl). This step was repeated 3× and the resin was transferred to a 2.5 cm glass column. Ten column volumes of wash buffer (0.05 M HEPES, pH 8.0, 0.1 M NaCl, 0.01 M 2-mercaptoethanol, 10%(w/v) glycerol) were applied to the resin followed by 10 column volumes of elution buffer (0.05 M HEPES, pH 8.0, 0.25 M NaCl, 0.01 M 2-mercaptoethanol, 10%(w/v) glycerol, 0.1 M imidazole). Fractions were analyzed by SDS-PAGE and those containing the protein of interest were pooled and concentrated. The concentrated protein was applied to an Amersham Superdex 75 (XK 26/60) column equilibrated in 0.025 M Tris-HCl, pH 7.5, 0.1 M NaCl, 0.01 M 2-mercaptoethanol, 10% (w/v) glycerol. […] Fractions containing the monomeric protein of interest were pooled, concentrated to ˜2 mg/mL, and stored at −80° C.
The phosphorylation of biotinylated-BAD (S112) peptide by full length recombinant Pim-1, Pim-2, or Pim-3 protein was detected with streptavidin:Allophycocyanin (APC) conjugate and a europium (Eu) labeled antibody directed against phosphorylated-BAD (S112). […] The fluorescence is directly proportional to the amount of phosphorylated BAD peptide present in the reaction. […] A reference compound was included on each assay plate in order to validate that plate; on one plate of every assay run, two additional reference compounds were included. The final buffer conditions were as follows: 60 mM Hepes, pH 7.0, 0.05% BSA, 2 mM DTT. Incubations were carried out at RT (22° C.) for 2 h for Pim-1, 1 hour and 30 min for Pim-3, and 45 min for Pim-2. The reaction was stopped by the addition of 3 mM EDTA, and fluorescence was measured by an HTRF® Rubystar microplate reader. For each plate, percent of control (POC) values were calculated for each well. Values for the IC50 IP were estimated using a standard 4-parameter logistic model.

[2] = system: KMS-12-BM myeloma cell line; assay: Pim KMS-12 cell assay (phospho-BAD S112 / total BAD, MSD); conditions: Homo sapiens, KMS-12-BM
Pim-1 [3] = target: T2, Pim-1 (Homo sapiens (Human), UniProt P11309); assay: Pim enzyme assay (HTRF, 96-well), Pim-1; type: biochemical; conditions: full length recombinant Pim-1, biotinylated-BAD (S112) peptide, 10-point curve, 2 h RT, read-out: Pim-1 IC50 IP
T2 sequence (P11309 whole entry): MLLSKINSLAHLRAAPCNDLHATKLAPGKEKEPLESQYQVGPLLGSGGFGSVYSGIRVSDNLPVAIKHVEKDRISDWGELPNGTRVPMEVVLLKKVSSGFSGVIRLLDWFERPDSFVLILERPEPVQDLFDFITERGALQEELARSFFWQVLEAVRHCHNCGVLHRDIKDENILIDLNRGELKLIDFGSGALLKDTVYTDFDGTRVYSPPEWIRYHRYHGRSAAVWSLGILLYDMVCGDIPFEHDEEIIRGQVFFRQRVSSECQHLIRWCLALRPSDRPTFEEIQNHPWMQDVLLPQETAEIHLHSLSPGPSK
In short: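 HTRF detection of biotinylated BAD (S112) phosphorylation by full-length recombinant His-tagged Pim-1 or Pim-2 in 60 mM Hepes pH 7.0, 0.05% BSA, 2 mM DTT at 22 °C: 2 h for Pim-1, 45 min for Pim-2. Stopped with EDTA; IC50 from 4-parameter logistic fit of percent of control.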

Pim-1 [4] = target: T2, Pim-1; assay: Pim-Mn enzyme assay (HTRF, 384-well), Pim-1; type: biochemical; conditions: Pim-1 enzyme 5 pM, ATP 1.5 μM, BAD (S112) 0.5 μM, HTRF, 22-point curve; read-out: Pim-1-Mn IC50 IP
Pim-2 [5] = target: T1, Pim-2; assay: Pim-Mn enzyme assay (HTRF, 384-well), Pim-2; type: biochemical; conditions: Pim-2 enzyme 0.5 pM, ATP 1.5 μM, BAD (S112) 0.5 μM, HTRF, 22-point curve; read-out: Pim-2-Mn IC50 IP
[6] = read-out: KMS-12-BM IC50 IP, KMS-12-BM cells, phospho-BAD (S112) vs total BAD, 1 hour 50 min with compound

IC50 (Pim-2 [1]) [nM]	IC50 [2, 6] [nM]	IC50 (Pim-1 [3]) [nM]	IC50 (Pim-1 [4]) [nM]	SMILES	IC50 ([2]; read-out: KMS-12-BM IC50 IP) [nM]	IC50 (Pim-2 [5]) [nM]
5.7	511	7.2	–	Cc1nc2cccc(-c3cc4c([nH]3)CCNC4=O)c2nc1NC1(C)COC1 [Example 197, 2-(2-methyl-3-((3-methyloxetan-3-yl)amino)quinoxalin-5-yl)-6,7-dihydro-1H-pyrrolo[3,2-c]pyridin-4(5H)-one]	–	–
4.6	5380	6.3	–	O=C1NCCc2[nH]c(-c3cccc4ccc(Oc5cccnc5)nc34)cc21 [Example 39, 2-(2-(3-pyridinyloxy)-8-quinolinyl)-1,5,6,7-tetrahydro-4H-pyrrolo[3,2-c]pyridin-4-one]	–	–
115	12200	20.6	–	O=C1NCCc2[nH]c(-c3cccc4ccc(N5CCOCC5)nc34)cc21 [Example 84, 2-(2-morpholinoquinolin-8-yl)-6,7-dihydro-1H-pyrrolo[3,2-c]pyridin-4(5H)-one]	–	–
92	–	92	90.9	Cn1cc(-c2ccc3ccc(F)c(-c4cc5c([nH]4)CCNC5=O)c3n2)cn1 [Example 229, 2-(7-fluoro-2-(1-methyl-1H-pyrazol-4-yl)quinolin-8-yl)-6,7-dihydro-1H-pyrrolo[3,2-c]pyridin-4(5H)-one]	–	–
32.2	15600	5.2	–	O=c1[nH]ccc2[nH]c(-c3cccc4ccc(Nc5ccccc5Cl)nc34)cc12 [Example 107, 2-(2-((2-chlorophenyl)amino)quinolin-8-yl)-1H-pyrrolo[3,2-c]pyridin-4(5H)-one]	–	–
17.6	966	36.2	–	Cc1nc2cccc(-c3cc4c([nH]3)CCNC4=O)c2nc1Nc1ccccn1 [Example 190, 2-(2-methyl-3-(pyridin-2-ylamino)quinoxalin-5-yl)-6,7-dihydro-1H-pyrrolo[3,2-c]pyridin-4(5H)-one]	–	–
4.7	217	7.6	–	C=C(C)CNc1nc2c(-c3cc4c([nH]3)CCNC4=O)cccc2nc1C [Example 135, 2-(2-methyl-3-((2-methylallyl)amino)quinoxalin-5-yl)-6,7-dihydro-1H-pyrrolo[3,2-c]pyridin-4(5H)-one]	–	–
8.6	6350	4.6	–	O=C1NCCc2[nH]c(-c3cccc4ccc(Oc5c(F)cccc5Cl)nc34)cc21 [Example 9, 2-(2-(2-chloro-6-fluorophenoxy)quinolin-8-yl)-6,7-dihydro-1H-pyrrolo[3,2-c]pyridin-4(5H)-one]	–	–
85.7	–	110	53.6	Cc1nc2cccc(-c3cc4c([nH]3)CCNC4=O)c2nc1NC1CCCNC1=O (racemic) [Example 200, rac-2-(2-methyl-3-((2-oxopiperidin-3-yl)amino)quinoxalin-5-yl)-6,7-dihydro-1H-pyrrolo[3,2-c]pyridin-4(5H)-one]	–	41.8
30.1	–	34.8	–	Cc1nc2cccc(-c3cc4c([nH]3)CCNC4=O)c2nc1N1CCCC1 [Example 138, 2-(2-methyl-3-(pyrrolidin-1-yl)quinoxalin-5-yl)-6,7-dihydro-1H-pyrrolo[3,2-c]pyridin-4(5H)-one]	–	–
99.8	–	93.4	–	Cc1nc2cccc(-c3cc4c([nH]3)CCNC4=O)c2nc1N1CCOCC1 [Example 133, 2-(2-methyl-3-morpholinoquinoxalin-5-yl)-6,7-dihydro-1H-pyrrolo[3,2-c]pyridin-4(5H)-one]	–	–
80.2	–	34	–	O=c1[nH]cnc2[nH]c(-c3cccc4ccc(Oc5ccccc5)nc34)cc12 [Example 17, 6-(2-phenoxyquinolin-8-yl)-3H-pyrrolo[2,3-d]pyrimidin-4(7H)-one]	–	–
2.8	–	0.8	–	O=C1NCCc2[nH]c(-c3cccc4ccc(Nc5cncnc5)nc34)cc21 [Example 13, 2-(2-(pyrimidin-5-ylamino)quinolin-8-yl)-6,7-dihydro-1H-pyrrolo[3,2-c]pyridin-4(5H)-one]	–	–

SMILES	IC50 (Pim-2 [1]) [nM]	IC50 [2, 6] [nM]	IC50 (Pim-1 [3]) [nM]	IC50 (Pim-1 [4]) [nM]	IC50 ([2]; read-out: KMS-12-BM IC50 IP) [nM]	IC50 (Pim-2 [5]) [nM]
O=C1NCCn2cc(-c3cccc4ccc(Nc5cccnc5)nc34)cc21 [Example 166, 7-(2-(pyridin-3-ylamino)quinolin-8-yl)-3,4-dihydropyrrolo[1,2-a]pyrazin-1(2H)-one]	2.2	4310	1.1	–	–	–
O=C1NCCc2[nH]c(-c3cccc4ccc(Cc5ccccc5)nc34)cc21 [Example 3, 2-(2-benzylquinolin-8-yl)-6,7-dihydro-1H-pyrrolo[3,2-c]pyridin-4(5H)-one]	37	–	12.8	–	6100	–
Cc1nc2cccc(-c3cc4c([nH]3)CCNC4=O)c2nc1NC(C)C [Example 192, 2-(3-(isopropylamino)-2-methylquinoxalin-5-yl)-6,7-dihydro-1H-pyrrolo[3,2-c]pyridin-4(5H)-one]	4.9	–	7.5	–	270	–
O=c1[nH]cnc2[nH]c(-c3cccc4ccc(Nc5ccccc5)nc34)cc12 [Example 16, 6-(2-(phenylamino)quinolin-8-yl)-3H-pyrrolo[2,3-d]pyrimidin-4(7H)-one]	13.5	–	2.7	–	3850	–
Cc1nc2cccc(-c3cc4c([nH]3)CCNC4=O)c2nc1N1CCC1 [Example 139, 2-(3-(azetidin-1-yl)-2-methylquinoxalin-5-yl)-6,7-dihydro-1H-pyrrolo[3,2-c]pyridin-4(5H)-one]	16	–	17.6	24.2	–	19.7
O=C1NCCc2[nH]c(-c3cccc4ccc(Oc5cccc(Cl)c5)nc34)cc21 [Example 41, 2-(2-(3-chlorophenoxy)-8-quinolinyl)-1,5,6,7-tetrahydro-4H-pyrrolo[3,2-c]pyridin-4-one]	68	–	13.6	–	–	–
O=c1[nH]cnc2[nH]c(-c3cccc4ccc(Cl)nc34)cc12 [Example 19, 6-(2-chloroquinolin-8-yl)-3H-pyrrolo[2,3-d]pyrimidin-4(7H)-one trifluoroacetate]	908	–	133	–	–	–
O=C1NCCc2[nH]c(-c3cccc4ccc(Oc5ccc(Cl)cc5)nc34)cc21 [Example 18, 2-(2-(4-chlorophenoxy)quinolin-8-yl)-6,7-dihydro-1H-pyrrolo[3,2-c]pyridin-4(5H)-one]	44.9	–	15.5	–	–	–
Cc1cccc(Oc2ccc3cccc(-c4cc5c([nH]4)CCNC5=O)c3n2)c1 [Example 43, 2-(2-(3-methylphenoxy)-8-quinolinyl)-1,5,6,7-tetrahydro-4H-pyrrolo[3,2-c]pyridin-4-one]	47.8	–	17.9	–	–	–
